Assays:
[1] = test system: pathogenic Th clones from SNF1 mice; assay: Stimulation of nucleosome-specific pathogenic Th clones from SNF1 mice by eluted/synthetic peptides; assay type: cell-based, mouse; settings: A20 or splenic B+Mφ as APC
Experimental: Fresh splenic, CD4^+ T cells (5×10^5/well) were co-cultured in triplicate wells at an initial concentration of 5×10^5 cells per well, with 10^6 cells per well of either irradiated B+Mφ or mitomycin-C treated A20 APC. Varying concentrations of either control or test peptides were added and the cultures were adjusted to 200 microliters final volume of HL-1 serum-free medium (Hycor Biomedical Inc., Irvine, Calif.) cultures were incubated for 96 hours in flat bottom 96-well plates, and at 18 hours prior to harvesting the cells, 1 microcurie of 3H-Thymidine was added to each well. The incorporated radioactivity was measured by scintillation counting. The Stimulation Index (SI) was calculated by dividing the mean counts per minute (cpm) incorporated in co-cultures of T cells and APC with test peptide by the mean cpm incorporated in control peptide co-cultures. In the case of cytokine assays, experiments were carried out as described for the proliferation assays except that the culture supernatants were removed from duplicate co-culture wells after 24-46 hours of incubation and cytokine assays were performed.
An aliquot of 50 microliters from each HPLC fraction was assayed for stimulating ability as described above. Four characterized Th clones were used as indicators of cytokine secretion (IL-2 and/or IL-4) in response to the peptide fractions, using A20 or splenic B+Mψ as APCs (Adams, et al., 1991, Proc. Natl. Acad. Sci. USA 88:11271-11275; Shi, et al., 1998, J. Exp. Med. 187:367-378). […] Only two out of one hundred fractions tested were able to stimulate Th cell clones. […] The latter was further separated as described, and tested for active fractions of HPLC purified peptides.. Three naturally processed and presented, stimulatory epitopes were identified using these procedures. The sequences of the peptides are as follows: SQKEEEEGAQREKE (EP-1, SEQ ID NO: 23); DWMEEEHGAQREKE (EP-2, SEQ ID NO: 24); and […] (EP-3, or H522-42, SEQ ID NO: 25). The first two peptides were homologous to sequences in a transcription factor, BRN-3, which is identical in chicken, mice and humans (GenBank). […] EP-1 is highly homologous to EP-2, but it also matched a sequence in cytomegalovirus envelope protein at aa position 57-70. Most likely these peptides are derived from some transcription factor in the chromatin that was incubated with the APC. The third sequence (EP-3) was derived from histone H5 (aa position 22-42) in chicken nucleosome, which is homologous to histone H1 sequence of mice and humans at amino acid position 22-42 ([…], SEQ ID NO:26). […] Therefore, the mouse H122-42 is the autoantigenic peptide in mice and is also referred to herein as EP-3. Nested sequences and unrelated sequences that were obtained in the active fractions from the eluates were also synthesized and re-tested.

[2] = test system: Th clones 1D12, 5E9, 3F6, 1G1; assay: Helper assay: Th clones co-cultured with splenic B cells from SNF1 mice in presence of peptide; assay type: cell-based, mouse; settings: responder Th clones 5E9 and 3F6
Experimental: IgG autoantibodies to ssDNA, dsDNA, histones, and nucleosomes were quantitated using an ELISA as described previously (Mohan, et al., 1995, J. Immunol., 154:1470-1480; Mohan, et al., 1993, J. Exp. Med. 177:1367-1381; Burlingame, et al., 1993, J. Clin. Invest. 91:1687-1696; Losman, et al., 1992, J. Immunol., 148:1561-1569). Sera were diluted 1:100 and heat-inactivated before use. Serum from normal BALB/c mice were used as negative control. Anti-DNA mAbs 564 and 205 were used to generate standard curves (Adams, et al., 1991, Proc. Natl. Acad. Sci. USA 88:11281-11275; Mohan, et al., 1995, J. Immunol., 154:1470-1480; Mohan, et al., 1993, J. Exp. Med. 177:1367-1381; Sainis and Datta, 1988, J. Immunol. 140:2215-2224). For IgG autoantibodies to ssDNA, histones and nucleosomes, 1 unit per milliliter was considered to be equivalent to the activity of one microgram per milliliter of mAb 564, which recognizes all three autoantigens (Mohan, et al., 1995, J. Immunol., 154:1470-1480; Mohan, et al., 1993, J. Exp. Med. 177:1367-1381), and for IgG anti-dsDNA, 1 unit per milliliter was equivalent to the binding of 0.6 micrograms per milliliter of the mAb 205.
After seven days of co-culture, the supernatants were assayed for IgG antibodies to the autoantigens (ds-DNA, ss-DNA, nucleosome, and histone) by ELISA. […]

SNF1 mice = assay: Acceleration of SLE-associated nephritis by immunization with eluted peptides in adjuvant; assay type: in vivo, mouse
Text: The animals received three more injections at two weeks interval with 50 micrograms of either an eluted peptide or the control peptide absorbed on alum (Pierce Chemical Co., Rockford, Ill.).

Sequence: STDHPKYSDMIVAAIQAEKNR (Histone fragment) [H122-42]
- stimulation of pathogenic Th clones [1]: equivalent to the chicken H52242 peptide
- stimulation of pathogenic Th clones ([1]; listed as EP-3): stimulatory
- augmentation of autoantibody-inducing help [2]: almost as much as the whole nucleosome
- development of severe nephritis (SNF1 mice; by 28 weeks of age): all the EP-3 immunized mice developed severe nephritis
- onset/rate of disease relative to control group (CFA alone or OVA peptide in CFA) (SNF1 mice; immunization from 12 weeks): developed severe nephritis earlier
- time to severe nephritis in some immunized animals (SNF1 mice; just after the first booster immunization): 2-3 weeks
- mice succumbed to severe lupus nephritis (SNF1 mice; within four weeks of the first injection, peptide in CFA): Eighty percent

From patent US6468537B1, “Localization of major peptide autoepitopes for nucleosome specific T cells of systemic lupus erythematosus” (The Board of Trustees of Northwestern University, priority 1999, dated 2002)
